Experimental data published in publication PMC3953198 (Journal of medicinal chemistry, 2013).

Key:
EphA2 receptor = EphA2 receptor (Mus musculus, UniProt Q03145); type: binding; settings: for activity in the binding assay (in words): EphA2-ephrin-A1 ELISA
PC3 cells = test: LDH assay; type: cell-based, human; settings: 2 h, at the tested concentrations

Chain of EphA2 receptor (Q03145 26-538 limits assumed): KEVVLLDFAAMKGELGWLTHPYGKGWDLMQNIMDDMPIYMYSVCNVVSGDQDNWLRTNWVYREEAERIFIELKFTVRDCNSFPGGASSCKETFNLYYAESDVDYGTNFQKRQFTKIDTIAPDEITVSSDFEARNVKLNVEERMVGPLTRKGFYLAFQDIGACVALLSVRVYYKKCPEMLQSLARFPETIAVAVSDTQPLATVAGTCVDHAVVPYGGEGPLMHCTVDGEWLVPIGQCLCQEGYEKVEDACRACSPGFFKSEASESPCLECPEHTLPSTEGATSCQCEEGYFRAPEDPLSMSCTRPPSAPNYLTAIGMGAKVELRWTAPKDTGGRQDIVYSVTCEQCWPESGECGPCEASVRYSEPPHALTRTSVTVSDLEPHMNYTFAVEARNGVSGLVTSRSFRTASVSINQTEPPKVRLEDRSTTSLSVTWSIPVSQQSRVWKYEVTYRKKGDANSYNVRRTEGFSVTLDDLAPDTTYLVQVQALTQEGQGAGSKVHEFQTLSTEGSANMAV

C[C@H](CCC(=O)NCC(=O)O)[C@H]1CC[C@H]2[C@@H]3CC[C@@H]4C[C@H](O)CC[C@]4(C)[C@H]3CC[C@]12C [Compound 2, glycolithocholic acid]
reversibility of binding (EphA2 receptor; 100 μM compound for 1 hour, with or without washing before 50 ng/mL ephrin-A1-Fc): reversible binder
nature of the antagonism (EphA2 receptor; from Schild plot): competitive binding

CC(=O)CNC(=O)CC[C@@H](C)[C@H]1CC[C@H]2[C@@H]3CC[C@@H]4C[C@H](O)CC[C@]4(C)[C@H]3CC[C@]12C [Compound 3]
IC50 (EphA2 receptor): > 316 µM
activity in the binding assay (in words) (EphA2 receptor): inactive

C[C@H](CCC(=O)N[C@@H](CC(N)=O)C(=O)O)[C@H]1CC[C@H]2[C@@H]3CC[C@@H]4C[C@H](O)CC[C@]4(C)[C@H]3CC[C@]12C [Compound 10]
IC50 (EphA2 receptor): > 316 µM

C[C@H](CCC(=O)N[C@H](CC(N)=O)C(=O)O)[C@H]1CC[C@H]2[C@@H]3CC[C@@H]4C[C@H](O)CC[C@]4(C)[C@H]3CC[C@]12C [Compound 11]
IC50 (EphA2 receptor): > 316 µM

C[C@H](CCC(=O)N[C@@H](CC(=O)O)C(=O)O)[C@H]1CC[C@H]2[C@@H]3CC[C@@H]4C[C@H](O)CC[C@]4(C)[C@H]3CC[C@]12C [Compound 12]
IC50 (EphA2 receptor): > 316 µM
activity in the binding assay (in words) (EphA2 receptor): inactive

C[C@H](CCC(=O)N[C@H](CC(=O)O)C(=O)O)[C@H]1CC[C@H]2[C@@H]3CC[C@@H]4C[C@H](O)CC[C@]4(C)[C@H]3CC[C@]12C [Compound 13]
IC50 (EphA2 receptor): > 316 µM
activity in the binding assay (in words) (EphA2 receptor): inactive

C[C@H](CCC(=O)N[C@@H](Cc1c[nH]c2ccccc12)C(=O)O)[C@H]1CC[C@H]2[C@@H]3CC[C@@H]4C[C@H](O)CC[C@]4(C)[C@H]3CC[C@]12C [Compound 20]
cytotoxic effect (LDH assay) (PC3 cells): nor had cytotoxic effect
